Data published in patent publication US7910620B2, “Uses of neuraminidase inhibitors in infectious diseases” (priority 2005, dated 2011).
Several values for one entry are separate records, joined by “and”; a condition that tells them apart may be missing. Equal values may be shown once. Entries after “also recorded” stand apart in the source; their conditions may differ.

Tests used:
[1] = system: canine parvoviral enteritis; assay: Canine parvoviral enteritis clinical cases: treatment and prevention with oral Tamiflu; format: in vivo, dog; conditions: for Outcome of exposed dogs (Days to Recover): exposed - preventive, Tamiflu 1 mg/lb once a day (AM) for 5 days
Procedure: Table 3 represents 28 Chihuahua dogs and puppies that experienced an outbreak of canine parvoviral enteritis within their kennel. The initial treatment lasted one week and was consistent with traditional therapy. (IV fluids, antibiotics and antiemetics). During the first week, 9 puppies died and a second veterinarian was consulted.
The second veterinarian removed all IV treatment and started oral Tamiflu and AmoxiDrops on 11 puppies. This treatment was administered by the kennel staff with the veterinarian consulting by phone.
The exposed dogs received 1 mg/lb of Tamiflu once a day for 5 days.
Table 4 represents of 25 cocker spaniel dogs and puppies that experienced an outbreak of canine parvoviral enteritis within their kennel. The initial treatment lasted one week and was consistent with traditional therapy consisting of IV fluids and antibiotics, antiemetics and steroids. During this period of time, 9 puppies died, and a second veterinarian was consulted.
The second veterinarian removed all IV treatment and oral Tamiflu and sulfadimethoxine/ormetoprim (antibiotic) were the only drugs administered to 11 of the puppies. The 12th puppy was taken to the veterinarian's clinic and received IV therapy. Those puppies remaining at the kennel were treated by the kennel staff.
Table 5 represents 48 individual cases of Canine Parvoviral Enteritis treated with 1 mg/lb Tamiflu AM/PM for 10 treatments. Cases posted VIN's Infectious Dz Board by 20 veterinarians practicing in 15 states.

[2] = system: Feline Parvoviral Enteritis; assay: Feline parvoviral enteritis cases: treatment and prevention with Tamiflu; format: in vivo, cat
Procedure: Table 6 represents 5 cases of Feline Parvoviral Enteritis with Tamiflu at 1 mg/lb AM/PM for 10 treatments.

[3] = system: Raccoon Parvoenteritis/Distemper; assay: Raccoon parvoenteritis/distemper treated with Tamiflu; format: in vivo; conditions: raccoons, Tamiflu 1 mg/lb every 12 hrs for 10 treatments, no IV drugs
Procedure: Table 7 represents 5 raccoons treated with Tamiflu at 1 mg/lb given every 12 hrs for 10 treatments. Treatment administered by civilian rehabbers at their homes. Granules mixed with pancake syrup.
Raccoons represent the 5th species (cow, dog, cat, mice) in which a neuraminidase inhibitor has been successful in treating or preventing a disease associated with neuramimidase dependent bacteria. Before using Tamiflu, the hemorrhagic gastroenteritis (Parvo) in raccoon was 100% fatal. […] Treatment was administered by untrained lay personnel at the rehab centers.

[4] = system: Infectious Canine Tracheobronchitis (ICT) or Kennel Cough; format: in vivo, dog; conditions: for Clinical course (Days to Recover): racing greyhounds Miami, oral antibiotic plus cough suppressant, no Tamiflu, 5 days
[5] = system: E. coli; assay: Clinical Trial: Tamiflu and E. coli (case Pinga, Table 16); format: in vivo, feline; conditions: for Clinical response: case Pinga, acute vomiting and hematuria, endotoxic condition
Procedure: In Table 16, E. coli, a neuraminidase dependent bacteria, was cultured from Pinga's urine following an acute onset of vomiting and hematuria. […] 24, 2005 when […] presented in an endotoxic condition.

SMILES: CCOC(=O)C1=C[C@@H](OC(CC)CC)[C@H](NC(C)=O)[C@@H](N)C1 [Tamiflu, oseltamivir]
- Days to Recover ([1]; Chihuahua kennel puppies, Tamiflu 1 mg/lb AM/PM oral with AmoxiDrops, no IV drugs): 5 days and 3 days
- Survival of puppies ([1]; Chihuahua kennel, 11 puppies, oral Tamiflu and AmoxiDrops): All puppies survived
- Outcome of exposed dogs (Days to Recover) ([1]; Chihuahua kennel): remained healthy
- Days to Recover ([1]; Sandcastle Kennels cocker puppies, Tamiflu 1 mg/lb AM/PM oral with sulfadimethoxine/ormetoprim): 3 days and 5 days and 4 days
- Outcome of exposed dogs (Days to Recover) ([1]; Sandcastle Kennels): did not develop canine parvoviral enteritis; also recorded: Healthy
- Outcome of exposed dog (Days to Recover) ([1]; Table 5, exposed puppy, weak parvo test, Tamiflu 1 mg/lb AM/PM): Normal
- Days to Recover ([2]; cats, Tamiflu 1 mg/lb AM/PM for 10 treatments, with IV drugs or SQ fluids): 4 days and 2 days and 3 days
- Outcome of exposed kitten (Days to Recover) ([2]; exposed kitten, Tamiflu 1 mg/lb once a day (AM) for 5 days): remained normal
- Days to Recover [3]: 3 days
- Days to Recover ([4]; kennel cough, Tamiflu 1 mg/lb AM/PM, with or without oral antibiotic, no cough suppressant): 3 to 5 days
- Illness in holding kennels under herd health program ([4]; sick dogs 1 mg/lb AM/PM 5 days, others and new puppies 1 mg/lb once a day for 5 days): below 5%
- Clinical response ([5]; E. coli cultured from urine): dramatic reversal
- Observations ([5]; cat Pinga, E. coli cultured from urine, at 2nd treatment, Nov. 24, 2004 5:35 PM, Tamiflu 12 mg PO (1 mg/lb), with Zeniquin): Pinga is more alert and has not vomited
- Temp ([5]; cat Pinga, at 3rd treatment, Nov. 25, 2004): 99.5 F.
- Temp ([5]; cat Pinga, at 4th treatment, Nov. 25, 2004): 98.9 F.
- Observations ([5]; cat Pinga, at 4th treatment, Nov. 25, 2004 5:30 PM, Tamiflu 12 mg PO): Urinated, was normal yellow color . . . has
- Temp ([5]; cat Pinga, at 5th treatment, Nov. 26, 2004): 98.8 F.
- Observations ([5]; cat Pinga, at 5th treatment, Nov. 26, 2004 10:30 AM, Tamiflu 12 mg PO, with Zeniquin): exam is normal
- Temp ([5]; cat Pinga, at 6th treatment, Nov. 26, 2004): 100.6 F.
- Observations ([5]; cat Pinga, at 6th treatment, Nov. 26, 2004 5 PM, Tamiflu 12 mg PO): Urinated normal urine . . . passed 3 small
- Temp ([5]; cat Pinga, at 7th treatment, Nov. 27, 2004): 98.8 F.
- Observations ([5]; cat Pinga, at 7th treatment, Nov. 27, 2004 10:30 AM, Tamiflu 12 mg PO, with Zeniquin): more alert . . . began to eat Wellness dry
- Temp ([5]; cat Pinga, at 9th treatment, Nov. 28, 2004): 100.1 F.
- Observations ([5]; cat Pinga, at 9th treatment, Nov. 28, 2004 10:30 AM, Tamiflu 12 mg PO, with Zeniquin): almost “normal” . . . maybe weak in rear
- Observations ([5]; cat Pinga, at 10th (last) treatment, 5:30 PM, Tamiflu 12 mg PO): Pinga appears to be normal . . . this is his

SMILES: C[C@H]1c2cccc(O)c2C(O)=C2C(=O)[C@]3(O)C(O)=C(C(N)=O)C(=O)[C@@H](N(C)C)[C@@H]3[C@@H](O)[C@@H]21 [Doxy]
- Clinical course (Days to Recover) [4]: No Change

SMILES: CN1CCN(c2c(F)cc3c(=O)c(C(=O)O)cn4c3c2OCN4C)CC1 [Zeniquin]
- Clinical response ([5]; E. coli cultured from urine): failed to respond
- Clinical course under antibiotic therapy (Medical History) ([5]; cat Pinga, Zeniquin 12.5 mg/day PO from Nov. 22 to Nov. 24, 2004, before Tamiflu): had gotten progressively worse over the course of antibiotic therapy, and now appeared to be approaching

SMILES: CC1=C(C(=O)O)N2C(=O)[C@@H](NC(=O)[C@H](N)c3ccccc3)[C@H]2SC1 [Cephalexin]
- Clinical course (Days to Recover) [4]: No Change
